The values below come from patent US7960397B2, “6,9-disubstituted purine derivatives and their use as cosmetics and cosmetic compositions” (Institute of Experimental Botany, Academy of Sciences of …, priority 2007, dated 2011).

The subject of experiment [1] is human diploid fibroblasts (HCA cells, HCA20, HCA40, HCA60). Put plainly: Senescent cells (β-galactosidase staining) in culture of human fibroblasts. Format: cell-based. The following applies: for SENESCENT CELLS (%) HCA20: human fibroblasts passage 20 (HCA20); for SENESCENT CELLS (%) HCA40: human fibroblasts passage 40 (HCA40); for SENESCENT CELLS (%) HCA60: human fibroblasts passage 60 (HCA60). The method, boiled down: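 Fibroblasts taken at passages 20, 40 and 60 were washed and fixed for 5 min at room temperature in 2% formaldehyde/0.2% glutaraldehyde in PBS. After PBS washes, cells were incubated at 37 °C for β-galactosidase staining.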

A further experiment has as its system excised wheat leaf tips. Put plainly: Antisenescence test, retention of chlorophyll in excised wheat leaf tips. On the set-up: species or system Triticum aestivum cv. Hereward. The following applies: for activity (%) [10^−4 mol · l^−1 BAP = 100%]: retention of chlorophyll in excised wheat leaf tips at the concentration with highest activity, 10 replicate determinations; for concentration with highest activity: retention of chlorophyll in excised wheat leaf tips, tested range 10^−8 M to 10^−4 M, 96 h in the dark at 25° C. In short, it runs like this: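 Winter wheat seedlings (Triticum aestivum cv. Hereward) were raised on vermiculite with Knop's solution at 25° C. for 7 days. Tips of the first leaf, 35 mm long (five tips, 100 mg combined), stood in […] of test solution in microtiter wells. After 96 h in the dark at 25° C., chlorophyll was extracted in 80% ethanol at 80° C. and read at 665 nm. Activity is relative to 10^−4 M BAP (100%).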

In a further experiment the test system is β-adrenergic receptors. Put plainly: Isoproterenol-induced cAMP synthesis in rat C6 glioma. The following applies: cellular cAMP, simultaneous addition with isoproterenol, 30 min. Format: cell-based. Here is the method: Anti-inflammatory activity. The compounds of formula 1 having anti-inflammatory activities can be used as cosmetics for treating inflammation skin disorders as atopic dermatitis, lichen planus, hyperpigmentation and Herpes simplex lesions. From this reason, rat C6 glioma (ATCC No. CCL107) was cultivated as a monolayer in a serum-free chemically defined medium containing Ham's F10-minimal essential medium (1:1 v/v), 2 mM L-glutamine, 1% (v/v) minimal essential medium vitamins (100×), 1% (v/v) minimal essential medium nonessential amino acids (100×), 100U/ml penicillin, […] streptomycin and 30 nM sodium selenite. Incubation was performed at 37° C. in a humidified atmosphere. The assays were performed in the logarithmic growth phase at a density of 2.5×10^5 cells/cm^2. Intracellular cAMP synthesis was induced by addition of […] (−)isoproterenol. After 30 min incubation at 37° C. the medium was removed and the cellular amount of cAMP was determined using the cAMP-enzyme immunoassay Amersham kit. The I50 value was determined from a dose-response curve in duplicate. The effect of the novel 6,9-disubstituted purines was measured after simultaneous addition with isoproterenol.
As P2Y1-like and A2 purinergic receptors, negatively and positively coupled to adenylate cyclase, respectively, are present in rat C6 glioma, it remains to be determined whether the modulation of the synthesis of cAMP is due to the inhibition of the activation of β-adrenergic receptors by isoproterenol, or due to the activation of purinergic receptors.

Experiment [2] has as its system Amaranthus caudatus cotyledon/hypocotyl explants. Put plainly: Amaranthus bioassay (betacyanin content). The following applies: for concentration with highest activity: betacyanin content after 48 h incubation, tested 10^−8 M to 10^−4 M; for Activity (%) [10^−5 mol · l^−1 BAP = 100%]: betacyanin content at the concentration with highest activity, 10^−5 M BAP = 100%. On the set-up: species or system Amaranthus caudatus var. atropurpurea. In short, it runs like this: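 Amaranthus caudatus explants (cotyledons plus hypocotyl) from 72 h dark-grown seedlings were incubated in darkness on medium with 10 mmol Na2HPO4–KH2PO4 pH 6.8, 5 mmol tyrosine and test compound; stock was 10^−3 M in DMSO/water. Betacyanin was measured as A537−A620 and activity expressed relative to 10^−5 M BAP (100%).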

Experiment [3] deals with cytokinin-dependent tobacco callus Nicotiana tabacum L. cv. Wisconsin 38. Put plainly: Cytokinin activity in tobacco callus bioassay. The format is cell-based. The following applies: for concentration with highest activity: growth of tobacco callus, four weeks of cultivation, tested 10^−8 M to 10^−4 M; for Activity (%) [10^−5 mol · l^−1 BAP = 100%]: increase of fresh callus weight at the concentration with highest activity, 10^−5 M BAP = 100%.

The subject of experiment [4] is Human T-lymphoblastic leukemia cell line CEM. Put plainly: In vitro cytotoxicity, Calcein AM assay. The following applies: read-out: GI50 CEM.
Description: (§1) Because only metabolically active cells cleave Calcein AM, these assays detect viable cells exclusively. The quantity of reduced Calcein AM corresponds to the number of vital cells in the culture.
(§2) The cells were maintained in Nunc/Corning 80 cm^2 plastic tissue culture flasks and cultured in cell culture medium (DMEM with 5 g/l glucose, 2 mM glutamine, 100 U/ml penicillin, 100 mg/ml streptomycin, 10% fetal calf serum and sodium bicarbonate).
(§3) The cell suspensions that were prepared and diluted according to the particular cell type and the expected target cell density (2,500-30,000 cells per well based on cell growth characteristics) were added by pipette (80 ml) into 96-well microtiter plates. Inoculates were allowed a pre-incubation period of 24 hours at 37° C. and 5% CO2 for stabilization. Four-fold dilutions of the intended test concentration were added at time zero in 20 ml aliquots to the microtiter plate wells. Usually, the compound tested was evaluated at six 4-fold dilutions. […] All drug concentrations were examined in duplicate. Incubations of cells with the tested compounds lasted for 72 hours at 37° C., in a 5% CO2 atmosphere and 100% humidity. At the end of the incubation period, the cells were assayed by using Calcein AM. Ten microliters of the stock solution were pipetted into each well and incubated for 1 hour. Fluorescence (FD) was measured with the Labsystem FIA Reader Fluoroscan Ascent (UK).
In experiment [5] the test system is breast carcinoma cell line MCF-7. Put plainly: In vitro cytotoxicity, Calcein AM assay. The following applies: read-out: GI50 MCF7.
Description: as §1, §2, §3
Experiment [6] concerns promyelocytic HL-60 leukemia. Put plainly: In vitro cytotoxicity, Calcein AM assay. The following applies: read-out: GI50 HL60.
Description: as §1, §2, §3
The next experiment deals with mouse fibroblasts NIH3T3. Put plainly: In vitro cytotoxicity, Calcein AM assay. The following applies: read-out: GI50 NIH-3T3.
Experiment [7] concerns human myeloid leukemia K-562. Put plainly: In vitro cytotoxicity, Calcein AM assay. The following applies: read-out: GI50 K-562.
Description: as §1, §2, §3
The next experiment deals with human osteosarcoma HOS. Put plainly: In vitro cytotoxicity, Calcein AM assay. The following applies: read-out: GI50 HOS.

Molecules are shown by their SMILES. Where two headings read alike, the source gives them in different places.

Description for human osteosarcoma HOS: as §1, §2, §3
Description for mouse fibroblasts NIH3T3: as §1, §2, §3

With `Oc1ccc(CNc2ncnc3c2ncn3C2CCCCO2)cc1O` (stereo not drawn), in [1], the “SENESCENT CELLS (%) HCA20” value was 3%, the “SENESCENT CELLS (%) HCA40” value was determined as 4% and the “SENESCENT CELLS (%) HCA60” value was found to be 15%. Moreover, in the experiment on excised wheat leaf tips, the “activity (%) [10^−4 mol · l^−1 BAP = 100%]” value amounted to 71.3% and the “concentration with highest activity” value is given as 10^−4 mol · l^−1. Further, the “Effect (modulation of the activity of β-adrenergic receptors)” value (“Effect” for short) with β-adrenergic receptors is listed as 1.7-fold fold activation. In [2], the “concentration with highest activity” value was 10^−4 mol · l^−1 and the “Activity (%) [10^−5 mol · l^−1 BAP = 100%]” value is recorded as 52%. Besides, in experiment [3], the “concentration with highest activity” value is on record as 10^−5 mol · l^−1 and the “Activity (%) [10^−5 mol · l^−1 BAP = 100%]” value was determined as 61%.

Regarding `COc1cc(O)cc(OC)c1CNc1ncnc2c1ncn2C1CCCCO1` (stereo not drawn), in experiment [1], the “SENESCENT CELLS (%) HCA20” value is given as 4%, the “SENESCENT CELLS (%) HCA40” value turned out to be 5% and the “SENESCENT CELLS (%) HCA60” value was determined as 21%. For the same compound, in the experiment with excised wheat leaf tips, the “activity (%) [10^−4 mol · l^−1 BAP = 100%]” value is reported as 22% and the “concentration with highest activity” value is recorded as 10^−4 mol · l^−1. Also, in the experiment on β-adrenergic receptors, the “Effect” value is given as 1.3-fol fold activation. In addition, in experiment [2], the “concentration with highest activity” value was 10^−4 mol · l^−1 and the “Activity (%) [10^−5 mol · l^−1 BAP = 100%]” value stood at 12%. Further, in experiment [3], the “concentration with highest activity” value is reported as 10^−5 mol · l^−1 and the “Activity (%) [10^−5 mol · l^−1 BAP = 100%]” value was 43%.

In the case of `COc1cc(CNc2ncnc3c2ncn3C2CCCCO2)ccc1O` (stereo not drawn), in experiment [1], the “SENESCENT CELLS (%) HCA20” value worked out at 4%, the “SENESCENT CELLS (%) HCA40” value is listed as 4% and the “SENESCENT CELLS (%) HCA60” value is 19%. Besides, in the experiment with excised wheat leaf tips, the “activity (%) [10^−4 mol · l^−1 BAP = 100%]” value amounted to 55% and the “concentration with highest activity” value is reported as 10^−4 mol · l^−1. Also, the “Effect” value in the experiment on β-adrenergic receptors was 1.6-fold fold activation. Moreover, in experiment [2], the “concentration with highest activity” value is 10^−4 mol · l^−1 and the “Activity (%) [10^−5 mol · l^−1 BAP = 100%]” value was found to be 57%. In addition, in experiment [3], the “concentration with highest activity” value is 10^−6 mol · l^−1 and the “Activity (%) [10^−5 mol · l^−1 BAP = 100%]” value came to 62%.

In general, GI50 refers to the concentration at which growth is held to half of that of the control. For the compound `Oc1ccccc1CNc1ncnc2[nH]cnc12` [2-hydroxybenzylamino / H, reference compound], the “activity (%) [10^−4 mol · l^−1 BAP = 100%]” value in the experiment on excised wheat leaf tips is given as 22.4%. In addition, the “concentration with highest activity” value in the experiment on excised wheat leaf tips is recorded as 10^−4 mol · l^−1; in experiment [2] it was 10^−4 mol · l^−1; in experiment [3] it was 10^−5 mol · l^−1. Also, the GI50 in [4] (CEM, 72 hours, Calcein AM) is 69.2 µM; in [5] (MCF7, 72 hours, Calcein AM) it was more than 167 µM; in experiment [6] (HL60, 72 hours, Calcein AM) it was 78 µM; in the experiment with mouse fibroblasts NIH3T3 (NIH-3T3, 72 hours, Calcein AM), more than 167 µM; in experiment [7] (K-562, 72 hours, Calcein AM), more than 167 µM; in the experiment with human osteosarcoma HOS (HOS, 72 hours, Calcein AM), more than 167 µM. Also, the “Activity (%) [10^−5 mol · l^−1 BAP = 100%]” value is reported as 32.6% in experiment [2] and 72.3% in experiment [3].

`Oc1cccc(CNc2ncnc3[nH]cnc23)c1` [3-hydroxybenzylamino / H, reference compound]: the “activity (%) [10^−4 mol · l^−1 BAP = 100%]” value in the experiment with excised wheat leaf tips is listed as 105.9%. The “concentration with highest activity” value in the experiment on excised wheat leaf tips is recorded as 10^−4 mol · l^−1; in experiment [2], 10^−5 mol · l^−1; in experiment [3], 10^−5 mol · l^−1. For the same compound, the concentration for 50% growth inhibition (GI50) in experiment [4] (CEM, 72 hours, Calcein AM) is 90.1 µM; in experiment [5] (MCF7, 72 hours, Calcein AM), more than 167 µM; in experiment [6] (HL60, 72 hours, Calcein AM), 79.2 µM; in the experiment on mouse fibroblasts NIH3T3 (NIH-3T3, 72 hours, Calcein AM), more than 167 µM; in experiment [7] (K-562, 72 hours, Calcein AM), 128 µM; in the experiment with human osteosarcoma HOS (HOS, 72 hours, Calcein AM), more than 167 µM. Moreover, the entries for the “Activity (%) [10^−5 mol · l^−1 BAP = 100%]” value in experiment [2] and in [3] were 99% and 116%, respectively.

On to `Oc1ccc(CNc2ncnc3c2ncn3C2CCCCO2)cc1` (stereo not drawn) [6-(4-hydroxybenzylamino)-9-(tetrahydropyran-2-yl)purine], for which the “SENESCENT CELLS (%) HCA20” value in experiment [1] stood at 5%. The “SENESCENT CELLS (%) HCA40” value in experiment [1] was determined as 5%. Moreover, in experiment [1], the “SENESCENT CELLS (%) HCA60” value was determined as 16%. The “activity (%) [10^−4 mol · l^−1 BAP = 100%]” value in the experiment with excised wheat leaf tips amounted to 10.1%. In addition, the “concentration with highest activity” value in the experiment on excised wheat leaf tips was 10^−4 mol · l^−1; in [2], 10^−4 mol · l^−1; in experiment [3] it was 10^−5 mol · l^−1. Also, the GI50 in [4] (Homo sapiens, 72 h) is more than 167 µM; in experiment [5] (Homo sapiens, MCF7, 72 h), more than 167 µM; in experiment [6] (Homo sapiens, HL-60, 72 h), more than 167 µM; in the experiment on mouse fibroblasts NIH3T3 (Mus musculus, NIH3T3, 72 h), more than 167 µM; in the experiment on human osteosarcoma HOS (Homo sapiens, 72 h), more than 167 µM. In addition, the “Effect” value in the experiment with β-adrenergic receptors is 1.8-fold fold activation. Moreover, the “Activity (%) [10^−5 mol · l^−1 BAP = 100%]” value in experiment [2] is given as 25.3%; in experiment [3], 36%.

Regarding `c1ccc(CNc2ncnc3nc[nH]c23)cc1` [benzylamino / H, 6-benzylaminopurine, reference compound], the “activity (%) [10^−4 mol · l^−1 BAP = 100%]” value in the experiment on excised wheat leaf tips turned out to be 100%. Further, the “concentration with highest activity” value was 10^−4 mol · l^−1 in the experiment with excised wheat leaf tips, 10^−5 mol · l^−1 in experiment [2] and 10^−6 mol · l^−1 in [3]. For the same compound, the GI50 is more than 167 µM in experiment [4] (Homo sapiens, 72 h); 166 µM in [5] (Homo sapiens, MCF7, 72 h); more than 167 µM in experiment [6] (Homo sapiens, HL-60, 72 h); more than 167 µM with mouse fibroblasts NIH3T3 (Mus musculus, NIH3T3, 72 h); 139 µM in experiment [7] (Homo sapiens, K562, 72 h); more than 167 µM in the experiment with human osteosarcoma HOS (Homo sapiens, 72 h). Also, the “Activity (%) [10^−5 mol · l^−1 BAP = 100%]” value in experiment [2] and in experiment [3] was 100% each time.
